# Results from patent US9290511B2, “Thieno-pyrimidines, useful as potassium channel inhibitors” (XENTION LIMITED, priority 2011, dated 2016).
# Target: T1, Kir3.1/3.4 (Rattus norvegicus, UniProt P48548+P63251)
# T1 construct: expressed in transfected cells
# T1 sequence (P63251 1-501): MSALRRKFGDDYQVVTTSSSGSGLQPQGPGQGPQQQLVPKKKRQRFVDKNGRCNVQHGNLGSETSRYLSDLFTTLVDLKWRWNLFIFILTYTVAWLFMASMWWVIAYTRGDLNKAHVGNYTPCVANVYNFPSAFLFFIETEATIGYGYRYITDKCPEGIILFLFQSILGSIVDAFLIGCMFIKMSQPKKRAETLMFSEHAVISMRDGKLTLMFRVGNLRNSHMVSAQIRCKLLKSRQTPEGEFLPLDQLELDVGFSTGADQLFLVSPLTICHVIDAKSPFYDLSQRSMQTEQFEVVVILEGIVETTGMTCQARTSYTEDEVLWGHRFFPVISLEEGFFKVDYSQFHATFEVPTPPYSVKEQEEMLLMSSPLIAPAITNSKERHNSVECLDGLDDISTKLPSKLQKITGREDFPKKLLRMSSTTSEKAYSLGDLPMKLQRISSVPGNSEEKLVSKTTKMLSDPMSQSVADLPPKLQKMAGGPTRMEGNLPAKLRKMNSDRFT
# T1 sequence (P48548 1-419): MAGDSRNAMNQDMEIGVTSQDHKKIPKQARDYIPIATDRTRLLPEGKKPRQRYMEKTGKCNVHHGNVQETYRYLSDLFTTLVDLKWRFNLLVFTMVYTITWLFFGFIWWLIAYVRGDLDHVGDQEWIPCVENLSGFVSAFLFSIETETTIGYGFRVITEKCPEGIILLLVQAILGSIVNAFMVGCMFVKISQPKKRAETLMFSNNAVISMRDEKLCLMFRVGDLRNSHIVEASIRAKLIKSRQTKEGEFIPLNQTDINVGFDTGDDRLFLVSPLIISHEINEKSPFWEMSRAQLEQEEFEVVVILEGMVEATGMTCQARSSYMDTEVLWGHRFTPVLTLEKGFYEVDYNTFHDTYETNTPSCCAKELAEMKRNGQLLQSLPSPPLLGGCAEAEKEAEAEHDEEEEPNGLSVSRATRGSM
# Experiment: Kir3.1/3.4 Electrophysiology Method (manual whole-cell patch clamp)
# Assay type: cell-based
# Conditions: Electrophysiology Method (TABLE 1)
# Procedure: Compound activity against the recombinant G-protein activated inward rectifier current encoded by the heterotetramer Kir3.1/3.4 was assessed using manual whole-cell patch technique. The heterotetramer forms the pore-forming channel that conducts the acetylcholine/adenosine-activated potassium current in the heart.
# For whole-cell patch-clamp studies, cells (Human Embryonic Kidney 293 stably transfected with rat Kir3.1/3.4) were seeded onto glass coverslips before recordings were made. Cells were seeded in sterile 30 mm Petri dishes at a density to enable isolated cells to be selected for patch clamp experiments. The dishes were stored in a humidified, gassed (5% CO2) incubator at 37° C. until use.
# Whole-cell patch-clamp recordings of membrane currents were made following gigaohm seal formation between the patch electrode and the cell using HEKA EPC-9/10 amplifiers controlled by Pulse Software (Ver8.5x/8.6×/8.7×, HEKA, Germany). Coverslips seeded with cells were placed in a recording chamber mounted on the stage of an inverted microscope. During the experiment, the cell of interest was continuously superfused with bather solution delivered via a cannula placed in close proximity to the cell to enable control of the extracellular solution environment. Only those cells with a current <−500 pA (current at −140 mV) were used for experiments. During experiments, series resistance was compensated by a minimum of 70%.
# Electrophysiology voltage-step protocols and analysis of data were performed as follows. Data was sampled at 5 kHz, and filtered with a −3 dB bandwidth of 2.5 kHz. Cells were held at a voltage of −60 mV. Currents were evoked by a depolarising voltage step to +60 mV (100 ms) before a ramp-repolarisation (0.4 V·s^−1) to −140 mV (100 ms) before returning to −60 mV. The command waveform was repeatedly applied every 10 s throughout the experiment. Mean currents during 1-99% of the time at −140 mV were analysed using Pulsefit software (v8.x, HEKA, Germany). The voltage protocol was repeatedly applied to achieve a stable current baseline in bather before the test substance was superfused via the cannula in close proximity to the cell under investigation. The test substance was allowed to equilibrate during which time voltage protocol was repeatedly applied and recorded. On reaching steady-state inhibition, the cell was superfused with an identical bather solution containing zero external potassium chloride (replaced by equimolar NaCl). The identical current measurement was made in the absence of potassium to assess the passive leak at −140 mV. The leak current was subtracted from the control and steady-state drug current values. The percentage inhibition of the leak-subtracted current in the presence of test substance was calculated relative to the control leak-subtracted pre-drug value. Internal patch-pipette solution contained in mM: 110 KCl, 20 NaCl, 0.9 GTPγS, 5 Mg-ATP, 5 EGTA, 10 HEPES, pH7.2 corrected with KOH. The external superfusate composition in mM was: 150 (or 160) NaCl, 10 (or 0) KCl, 3 CaCl2, 1 MgCl, 10 HEPES, pH 7.4 corrected with NaOH.
row,IC50,Structure (SMILES)
1,< 0.5 µM,COCCNc1nc(N2CCC(CN(C)C3CCN(C)C3)CC2)c2c(-c3ccccc3)csc2n1 (stereo not shown) [Example 118]
2,< 0.5 µM,CN(C)CCCNCC1CCN(c2ncnc3scc(-c4ccccc4)c23)CC1 [Example 217]
3,< 0.5 µM,"OCC1CCCN1CC1CCN(c2ncnc3scc(-c4ccccc4)c23)CC1 (stereo not shown) [Example 65, [1-[[1-(5-phenylthieno[2,3-d]pyrimidin-4-yl)-4-piperidyl]methyl]pyrrolidin-2-yl]methanol]"
4,< 0.5 µM,"CC(C)(C)OC(=O)N1CCCC1CCNCC1CCN(c2ncnc3scc(-c4ccccc4)c23)CC1 (stereo not shown) [Example 82, tert-butyl 2-[2-[[1-(5-phenylthieno[2,3-d]pyrimidin-4-yl)-4-piperidyl]methylamino]ethyl]pyrrolidine-1-carboxylate]"
5,< 0.5 µM,Cc1sc2ncnc(N3CCC(CNC4CCN(C)CC4)CC3)c2c1C [Example 232]
6,< 0.5 µM,"CC(C)(CNCC1CCN(c2ncnc3scc(-c4ccccc4)c23)CC1)N1CCOCC1 [Example 59, 2-methyl-2-morpholino-N-[[1-(5-phenylthieno[2,3-d]pyrimidin-4-yl)-4-piperidyl]methyl]propan-1-amine]"
7,< 0.5 µM,COCCNCC1CCN(c2nc(N3CCC(COC)CC3)c3c(-c4ccccc4)csc3n2)CC1 [Example 192]
8,< 0.5 µM,c1ccc(-c2csc3ncnc(N4CCC(OCCN5CCCC5)C4)c23)cc1 (stereo not shown) [Example 269]
9,0.5 to 3 µM,"c1ccc(COC2CCN(c3ncnc4scc(-c5ccccc5)c34)C2)cc1 (stereo not shown) [Example 178, d]pyrimidine]"
10,< 0.5 µM,"CN(C)C1CCCN(CC2CCN(c3ncnc4scc(-c5ccccc5)c34)CC2)C1 (stereo not shown) [Example 60, N,N-dimethyl-1-[[1-(5-phenylthieno[2,3-d]pyrimidin-4-yl)-4-piperidyl]methyl]piperidin-3-amine]"
11,< 0.5 µM,c1ccc(-c2csc3ncnc(N4CCC(CNCCN5CCCC5)CC4)c23)cc1 [Example 206]
12,< 0.5 µM,CC(C)c1csc2ncnc(N3CC4CC3CC4OCCN3CCCC3)c12 (stereo not shown) [Example 288]
13,< 0.5 µM,Cn1ccnc1CCNCC1CCN(c2ncnc3scc(-c4ccccc4)c23)CC1 [Example 221]
14,0.5 to 3 µM,"CN(C)S(=O)(=O)c1ccc(-c2csc3ncnc(N4CCC(COCCN5CCCC5)CC4)c23)cc1 [Example 44, N,N-dimethyl-4-[4-[4-(2-pyrrolidin-1-ylethoxymethyl)-1-piperidyl]thieno[2,3-d]pyrimidin-5-yl]benzenesulfonamide]"
15,< 0.5 µM,Cc1sc2ncnc(N3CCC(CNCCC4CCCCN4C)CC3)c2c1C (stereo not shown) [Example 233]
16,0.5 to 3 µM,"CC(=O)N1CCCC1CCN(C)CC1CCN(c2ncnc3scc(-c4ccccc4)c23)CC1 (stereo not shown) [Example 89, 1-[2-[2-[methyl-[[1-(5-phenylthieno[2,3-d]pyrimidin-4-yl)-4-piperidyl]methyl]amino]ethyl]pyrrolidin-1-yl]ethanone]"
17,< 0.5 µM,CC(C)C(=O)Nc1sc2nc(N3CCC(COCCN4CCCC4)CC3)ncc2c1-c1ccccc1 [Example 304]

row,IC50,Structure (SMILES)
1,0.5 to 3 µM,NC(=O)C1CCN(c2nc(N3CCC(CNC4CCC4)CC3)c3c(-c4ccccc4)csc3n2)C1 (stereo not shown) [Example 128]
2,< 0.5 µM,"Fc1ccc(C2CCN(CC3CCN(c4ncnc5scc(-c6ccccc6)c45)CC3)C2)cc1 (stereo not shown) [Example 70, 4-[4-[[3-(4-fluorophenyl)pyrrolidin-1-yl]methyl]-1-piperidyl]-5-phenyl-thieno[2,3-d]pyrimidine]"
3,< 0.5 µM,"CN1CCCCC1CCOCC1CCN(c2ncnc3scc(-c4cccc(F)c4)c23)CC1 (stereo not shown) [Example 36, 5-(3-fluorophenyl)-4-[4-[2-(1-methyl-2-piperidyl)ethoxymethyl]-1-piperidyl]thieno[2,3-d]pyrimidine]"
4,< 0.5 µM,CC(C)c1csc2ncnc(N3CCC(COCCN4CCCC4)CC3)c12 [Example 265]
5,< 0.5 µM,CN1CCC[C@H]1CCNCC1CCN(c2ncnc3scc(-c4ccccc4)c23)CC1 [Example 100]
6,< 0.5 µM,CC(=O)N(C)C1CCN(CC2CCN(c3ncnc4scc(-c5ccccc5)c34)CC2)C1 (stereo not shown) [Example 248]
7,< 0.5 µM,CC(C)c1csc2ncnc(N3CC4CC3CC4OCCN3CC[C@H](F)C3)c12 (stereo partly shown) [Example 294]
8,< 0.5 µM,"CN(C)CCOCC1CCN(c2nc(N3CCC(C(N)=O)C3)nc3scc(-c4ccccc4)c23)CC1 (stereo not shown) [Example 14, 1-[4-[4-(2-dimethylaminoethyloxymethyl)-1-piperidyl]-5-phenyl-thieno[2,3-d]pyrimidin-2-yl]pyrrolidine-3-carboxamide]"
9,< 0.5 µM,CN(C)C1CCCN(CC2CCCN(c3ncnc4scc(-c5ccccc5)c34)C2)C1 (stereo not shown) [Example 208]
10,< 0.5 µM,CC(C)c1csc2nc(N3CCC(C(N)=O)C3)nc(N3CCC(CN(C)C4CCN(C)C4)CC3)c12 (stereo not shown) [Example 245]
11,0.5 to 3 µM,"CC1CCN(CC2CCN(c3ncnc4scc(-c5ccccc5)c34)CC2)C1 (stereo not shown) [Example 50, 4-[4-[(3-methylpyrrolidin-1-yl)methyl]-1-piperidyl]-5-phenyl-thieno[2,3-d]pyrimidine]"
12,< 0.5 µM,CN(C)C1CCCN(CC2CCN(c3nc(NCCN4CCCC4)nc4scc(-c5ccccc5)c34)CC2)C1 (stereo not shown) [Example 117]
13,< 0.5 µM,COCC1CCN(c2nc(N(C)C3CCN(C)C3)nc3scc(-c4ccccc4)c23)CC1 (stereo not shown) [Example 193]
14,< 0.5 µM,CN(C)CCN(C)CC1CCN(c2nc(N3CCC(C(N)=O)C3)nc3scc(-c4ccccc4)c23)CC1 (stereo not shown) [Example 225]
15,< 0.5 µM,Brc1sc2nccc(N3CCC(COCCN4CCCC4)CC3)c2c1-c1ccccc1 [Example 143]
16,3 to 10 µM,CN(C)C(=O)c1ccccc1-c1csc2ncnc(N3CCC(COCCN4CCCC4)CC3)c12 [Example 330]
17,0.5 to 3 µM,NC(=O)[C@@H]1CCN(CCN2CCN(c3ncc4c(-c5ccccc5)csc4n3)CC2)C1 [Example 150]

row,Structure (SMILES),IC50
1,c1ccc(-c2csc3ncnc(N4C5CCC4CC(OCCN4CCCC4)C5)c23)cc1 (stereo not shown) [Example 289],< 0.5 µM
2,"NC(=O)C1CCN(c2nc(N3C4CCC3CC(NC3CCC3)C4)c3c(-c4ccccc4)csc3n2)C1 (stereo not shown) [Example 337, 1-[4-[3-(cyclobutylamino)-8-azabicyclo[3.2.1]octan-8-yl]-5-phenyl-thieno[2,3-d]pyrimidin-2-yl]pyrrolidine-3-carboxamide]",0.5 to 3 µM
3,COCC1CC2CCC(C1)N2c1nc(N2CCOCC2)c2c(-c3ccccc3)csc2n1 (stereo not shown) [Example 300],0.5 to 3 µM
4,"COCC1C[C@H]2CC[C@@H](C1)N2c1nc(OC2CC3CC2CN3)nc2sc(C(=O)N(C)C)c(-c3ccccc3)c12 (stereo partly drawn) [Example 366, 2-(2-azabicyclo[2.2.1]heptan-5-yloxy)-4-[(1S,5R)-3-(methoxymethyl)-8-azabicyclo[3.2.1]octan-8-yl]-N,N-dimethyl-5-phenyl-thieno[2,3-d]pyrimidine-6-carboxamide]",0.5 to 3 µM
5,COc1ncccc1-c1csc2ncnc(N3C4CCC3CC(NC3CCC3)C4)c12 (stereo not shown) [Example 345],< 0.5 µM
6,c1ccc(-c2csc3ncnc(N4C5CCC4CC(CN4CCCC4)C5)c23)cc1 (stereo not shown) [Example 335],< 0.5 µM
